Test [1] deals with NIH:OVCAR-3 cells. The experiment in a line: Cell viability of KIF18a-sensitive cell lines, NIH:OVCAR-3 (Cell Titre-Glo, 7 days). The format is cell-based. The note with it: Homo sapiens, OVCAR-3, 168 h; NIH:OVCAR3, 7 days; read-out: NIH:OVCAR3 IC50. Here is the method: (§1) Cell lines were seeded as follows 24 hours before compound treatment: HCC15 (Korean Cell Line Bank) 600 cell/well, 95 μL of RPMI-1640 media supplemented with 100 units/mL penicillin, 100 units/mL streptomycin and 10% FBS; NIH:OVCAR-3 (ATCC), 1000 cell/well, 95 μL of RPMI-1640 media supplemented with 100 units/mL penicillin, 100 units/mL streptomycin, 0.01 mg/mL bovine insulin, and 20% FBS; JIMT-1 (Addexbio) 1000 cell/well, 95 μL of DMEM media supplemented with 100 units/mL penicillin, 100 units/mL streptomycin, and 10% FBS.
(§2) Test compounds were added to cells in a 20× dilution scheme by adding 5 μL of serially diluted compound to the plate, and the treated cells were incubated for an additional 7 days in a 37° C., 5% CO2 incubator. DMSO was used as the negative control (0% effect), and wells omitting cells were used as the positive control (100% effect). The cells were incubated for seven days, and cell viability determined via the Promega Cell Titre-Glo® Assay kit. Luminescence units were converted to ATP concentrations via an ATP standard curve (10 point, 2-fold dilution from 5 uM). % Inhibition was calculated for each well as: ([max−min]−[test−min])/[max−min]. IC50 values were calculated from concentration vs. % Inhibition data via a four-parameter variable slope model.

For test [2], the system named is JIMT-1 cells. The experiment in a line: Cell viability of KIF18a-sensitive cell lines, JIMT-1 (Cell Titre-Glo, 7 days). Format: cell-based. Conditions: Homo sapiens, 168 h; JIMT-1, 7 days; read-out: JIMT-1 IC50. On the procedure:
as §1, §2

In test [3] the target is hKIF18A (1-374) (Homo sapiens (Human), UniProt Q8NI77). As to the kind of experiment: Inhibition of KIF18A microtubule-dependent ATPase activity (ADP-Glo). The format is biochemical. Conditions: 4 nM hKIF18A (1-374). Put shortly: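 Reaction was started with pre-formed microtubules and ATP (0.2 mg/mL and 2.0 mM in the added mix) and run 60 min at 28 °C. ADP was read by ADP-Glo luminescence, and IC50 came from a four-parameter fit of % inhibition.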
hKIF18A (1-374), sequence (Q8NI77 1-374): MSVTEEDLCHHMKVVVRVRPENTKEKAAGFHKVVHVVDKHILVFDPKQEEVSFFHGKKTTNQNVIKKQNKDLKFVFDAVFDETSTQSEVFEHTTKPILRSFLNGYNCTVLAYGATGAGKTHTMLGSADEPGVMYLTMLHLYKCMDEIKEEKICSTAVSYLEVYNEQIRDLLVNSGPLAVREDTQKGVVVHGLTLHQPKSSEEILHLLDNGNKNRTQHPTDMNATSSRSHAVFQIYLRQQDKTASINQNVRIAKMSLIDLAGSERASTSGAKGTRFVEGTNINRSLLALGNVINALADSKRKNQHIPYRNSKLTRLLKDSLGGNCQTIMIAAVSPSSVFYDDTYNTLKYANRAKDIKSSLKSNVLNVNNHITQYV
(ADP-Glo turns the ADP formed in a reaction into a luminescent signal.)

Test [4] relates to HCC15 cells. The experiment in a line: Cell viability of KIF18a-sensitive cell lines, HCC15 (Cell Titre-Glo, 7 days). Format: cell-based. The note with it: 168 h; HCC15, 7 days; read-out: HCC15 IC50. Here is the method: as §1, §2
The target of test [5] is KIF18a-microtubule complex (Homo sapiens (Human), UniProt Q8NI77). The experiment in a line: Binding kinetics to KIF18a-microtubule complex (global progress curve analysis). Conditions: for kon (on-rate from binding kinetics assay) / koff: KIF18A 0.25 nM, up to 24 hr; for koff: read-out: koff (off-rate from binding kinetics assay) (converted); for Ki: koff/kon, read-out: KI (determined from binding kinetic assay koff/kon). Here is the method: Compound binding kinetics parameters (kon and koff) were determined by the method of global progress curve analysis (GPCA). […] ADP product levels were determined by the Promega® ADP-Glo assay.
KIF18a-microtubule complex, sequence (Q8NI77 1-374, one chain of several): as the sequence (Q8NI77 1-374) above

Test [6] relates to OVCAR-3 tumor cells. The experiment in a line: In vivo activity, OVCAR-3 xenograft tumor growth inhibition. The note with it: OVCAR3 model, Balb/C nude mice, FIG. 1. Here is the method:
(§3) OVCAR-3 (ATCC) tumor cells were maintained in vitro in RPMI-1640 medium supplemented with 20% fetal bovine serum, 0.01 mg/mL bovine insulin and 1% Anti-Anti at 37° C. in an atmosphere of 5%/CO2 in air. HCC15 (DSMZ) tumor cells were maintained in vitro in RPMI 1640 medium supplemented with 10% fetal bovine serum and 1% Anti-Anti at 37° C. in an atmosphere of 5% CO2 in air.
(§4) The tumor cells were sub-cultured twice weekly. The cells growing in an exponential growth phase were harvested and counted for tumor inoculation.
(§5) Tumor cells (10×106) in 0.2 mL of PBS mixed with Matrigel (50:50) were inoculated subcutaneously on the right flank of each mouse. When the average tumor volume reached 110-175 mm^3, animals were randomized into groups of 10 and treatment started. OVCAR-3 cells were implanted in Balb/C nude mice, and HCC15 cell were implanted in SCID Beige mice.
(§6) Compounds were dosed once or twice a day (12 h) orally. Tumor Growth Inhibition (TGI) was calculated using the formula: TGI (%)=[1−(TN−T0)/(VN−V0)]×100; TN is the average tumor volume of a treatment group at the indicated timepoint, T0 is the average tumor volume of the treatment group on treatment day 0, VN is the average tumor volume of the vehicle control group at the indicated timepoint, and V0 is the average tumor volume of the vehicle group on treatment day 0. P value was calculated based on tumor size by One-Way ANOVA with GraphPad Prism 9.4.0 compared with the vehicle group, respectively. **** indicates p<0.0001.
(§7) The tumor volume of vehicle- and compound-treated mice as a function of time after start of treatment and the results of treatments with selected compounds on SCID Beige mice or nude mice implanted with HCC15 or OVCAR-3 are shown in FIGS. 1 and 2. The TGI calculated for treatments with selected compounds are shown in Table 11.

In test [7] the test system is HCC15 tumor cells. As to the kind of experiment: In vivo activity, HCC15 xenograft tumor growth inhibition. The note with it: HCC15 model, SCID Beige mice, FIG. 2. Here is the method:
as §3, §4, §5, §6, §7

These results are taken from patent US20230382889A1 (Volastra Therapeutics, Inc., priority 2022, published 2023).

One may read the IC50 as the concentration at which inhibition is half-maximal. A word on the koff: it is a measure of how fast the partners let go of each other. With `CS(=O)(=O)Nc1ccc(-c2ncc(-c3cccc(N4CCC(F)(F)CC4)n3)[nH]2)c(N2CCC3(CC2)CC3)c1` [Compound 9, N-(4-(5-(6-(4,4-difluoropiperidin-1-yl)pyridin-2-yl)-1H-imidazol-2-yl)-3-(6-azaspiro[2.5]octan-6-yl)phenyl)methanesulfonamide], the IC50 in test [1] was 200 nM; in test [2] it was 100 nM; in test [3] it was 21 nM; in test [4], 110 nM. For the same compound, the “kon (on-rate from binding kinetics assay)” value (from here on “kon”) in test [5] amounted to 6670 M⁻¹ s⁻¹. In test [5], the koff is 5.83e-05 s⁻¹. Also, in test [5], the Ki was determined as 8.7 nM. Besides, in test [5], the “disc. t1/2 (dissociation half-life ln(2)/koff)” value was 3.3 h.

In the case of `CS(=O)(=O)Nc1ccc(-c2ncc(-c3cccc(N4CCOCC4)n3)[nH]2)c(N2CCC3(CC2)CC3)c1` [Compound 10, N-(4-(5-(6-morpholinopyridin-2-yl)-1H-imidazol-2-yl)-3-(6-azaspiro[2.5]octan-6-yl)phenyl)methanesulfonamide], in test [1], the IC50 worked out at 210 nM. For the same compound, the IC50 in test [2] turned out to be 130 nM. The IC50 in test [3] was 9.2 nM. The IC50 in test [4] amounted to 120 nM. Moreover, in test [5], the “kon” value was determined as 4720 M⁻¹ s⁻¹, the koff was 6.67e-05 s⁻¹, the Ki was found to be 14 nM and the “disc. t1/2 (dissociation half-life ln(2)/koff)” value is given as 2.9 h.

`CS(=O)(=O)Nc1ccc(-n2cc(-c3cccc(N4CCC(F)(F)CC4)n3)nn2)c(N2CCC3(CC2)CC3)c1` [Compound 11, N-(4-(4-(6-(4,4-difluoropiperidin-1-yl)pyridin-2-yl)-1H-1,2,3-triazol-1-yl)-3-(6-azaspiro[2.5]octan-6-yl)phenyl)methanesulfonamide]: in test [1], the IC50 amounted to 23 nM. Also, in test [2], the IC50 turned out to be 9.1 nM. The compound also displayed an IC50 in test [3] of 23 nM. The IC50 in test [4] came to 13 nM. Moreover, in test [5], the “kon” value was found to be 36100 M⁻¹ s⁻¹, the koff was 4.44e-06 s⁻¹, the Ki amounted to 0.13 nM and the “disc. t1/2 (dissociation half-life ln(2)/koff)” value was determined as 43 h.

For the compound `CS(=O)(=O)Nc1ccc(-n2cc(-c3cccc(N4CCC(F)(F)CC4)n3)nn2)c(N2CCCCC2)c1` [Compound 15, N-(4-(4-(6-(4,4-difluoropiperidin-1-yl)pyridin-2-yl)-1H-1,2,3-triazol-1-yl)-3-(piperidin-1-yl)phenyl)methanesulfonamide], the IC50 in test [1] is 18 nM; in test [2], 12 nM; in test [3], 6.6 nM; in test [4], 12 nM. For the same compound, the “kon” value in test [5] worked out at 21900 M⁻¹ s⁻¹. Also, in test [5], the koff was 1.14e-05 s⁻¹. For the same compound, the Ki in test [5] is 0.52 nM. Besides, the “disc. t1/2 (dissociation half-life ln(2)/koff)” value in test [5] is listed as 17 h.

Regarding `O=S(=O)(CCO)Nc1ccc(-n2cc(-c3cccc(N4CCC(F)(F)CC4)n3)nn2)c(N2CCC3(CC2)CC3)c1` [Compound 45, N-(4-(4-(6-(4,4-difluoropiperidin-1-yl)pyridin-2-yl)-1H-1,2,3-triazol-1-yl)-3-(6-azaspiro[2.5]octan-6-yl)phenyl)-2-hydroxyethane-1-sulfonamide], the IC50 in test [1] came to 5.5 nM. Further, in test [2], the IC50 was determined as 6.9 nM. The same compound registered an IC50 in test [3] of 6.6 nM. Further, the IC50 in test [4] is 3.9 nM. In test [5], the “kon” value came to 30600 M⁻¹ s⁻¹, the koff is 6.67e-06 s⁻¹, the Ki was determined as 0.21 nM and the “disc. t1/2 (dissociation half-life ln(2)/koff)” value turned out to be 28 h.

With `Cc1cc(-c2cn(-c3ccc(NS(=O)(=O)CCO)cc3N3CCC4(CC3)CC4)nn2)nc(N2CCC(F)(F)CC2)n1` [Compound 47, N-(4-(4-(2-(4,4-difluoropiperidin-1-yl)-6-methylpyrimidin-4-yl)-1H-1,2,3-triazol-1-yl)-3-(6-azaspiro[2.5]octan-6-yl)phenyl)-2-hydroxyethane-1-sulfonamide], the TGI is 44 ± 11% in test [6] (3 mg/kg QD PO); 119 ± 1% in test [6] (10 mg/kg QD PO); 120 ± 1% in test [6] (30 mg/kg QD PO); 64 ± 7% in test [7] (3 mg/kg QD PO); 83 ± 4% in test [7] (10 mg/kg QD PO); 87 ± 4% in test [7] (30 mg/kg QD PO). Also, the IC50 in test [1] amounted to 13 nM; in test [2], 16 nM; in test [3], 19 nM; in test [4], 9.2 nM. Moreover, in test [5], the “kon” value was found to be 14400 M⁻¹ s⁻¹. Besides, in test [5], the koff is 2.78e-06 s⁻¹. Besides, the Ki in test [5] is 0.2 nM. In addition, in test [5], the “disc. t1/2 (dissociation half-life ln(2)/koff)” value turned out to be 68 h.

Consider `Cc1cc(-c2cn(-c3ccc(NS(=O)(=O)CCO)cc3N3CCCCC3)nn2)nc(N2CCC(F)(F)CC2)n1` [Compound 67, N-(4-(4-(2-(4,4-difluoropiperidin-1-yl)-6-methylpyrimidin-4-yl)-1H-1,2,3-triazol-1-yl)-3-(piperidin-1-yl)phenyl)-2-hydroxyethane-1-sulfonamide], for which the IC50 in test [1] came to 47 nM. In test [2], the IC50 stood at 66 nM. This compound gave an IC50 in test [3] of 22 nM. The IC50 in test [4] was 51 nM. In test [5], the “kon” value stood at 12200 M⁻¹ s⁻¹, the koff was 2.06e-05 s⁻¹, the Ki came to 1.7 nM and the “disc. t1/2 (dissociation half-life ln(2)/koff)” value turned out to be 9.4 h.

As to `Cc1cc(-c2cn(-c3ccc(NS(=O)(=O)CCO)cc3N3CCCCC3)nn2)nc(N2CCC(F)(F)CC2)c1` [Compound 68, N-(4-(4-(6-(4,4-difluoropiperidin-1-yl)-4-methylpyridin-2-yl)-1H-1,2,3-triazol-1-yl)-3-(piperidin-1-yl)phenyl)-2-hydroxyethane-1-sulfonamide], the IC50 in test [1] is 21 nM. Besides, the IC50 in test [2] worked out at 30 nM. Further, the 50% inhibitory concentration (IC50) in test [3] was found to be 12 nM. Also, the IC50 in test [4] was 28 nM. Also, in test [5], the “kon” value worked out at 21900 M⁻¹ s⁻¹, the koff was 1.81e-05 s⁻¹, the Ki was 0.82 nM and the “disc. t1/2 (dissociation half-life ln(2)/koff)” value is 11 h.

`O=S(=O)(CCO)Nc1ccc(-n2cc(-c3csc(N4CCC(F)(F)CC4)n3)nn2)c(N2CCC3(CC2)CC3)c1` [Compound 69, N-(4-(4-(2-(4,4-difluoropiperidin-1-yl)thiazol-4-yl)-1H-1,2,3-triazol-1-yl)-3-(6-azaspiro[2.5]octan-6-yl)phenyl)-2-hydroxyethane-1-sulfonamide]: the IC50 stood at 32 nM in test [1], 38 nM in test [2], 6 nM in test [3] and 29 nM in test [4]. Besides, the “kon” value in test [5] is 36100 M⁻¹ s⁻¹. In test [5], the koff is 1.94e-05 s⁻¹. The Ki in test [5] came out at 0.53 nM. Further, the “disc. t1/2 (dissociation half-life ln(2)/koff)” value in test [5] came to 9.9 h.
